Results: PMC11306024, “Novel metabolite madeirone and neomarinone extracted from Streptomyces aculeoletus as marine antibiofilm and antifouling agents” (Frontiers in Chemistry, 2024)

What was measured:
[1] = tested on: P. batsensis; assay: Antibiofilm activity (inhibition of biofilm formation); assay type: cell-based, Pseudo-oceanicola batsensis DSM 15984; conditions: for inhibition at 0.98 µg/mL / inhibition at 1.95 µg/mL / inhibition at 3.91 µg/mL / inhibition at 7.81 µg/mL / inhibition at 15.6 µg/mL / inhibition at 31.25 µg/mL: 48 h; for inhibition at 15.6 µg/mL: 15.60 µg/mL
Method: To assess antimicrofouling activity, we selected five marine bacterial species as models: Marinobacter hydrocarbonoclasticus DSM 8798 (ATCC 49840), C. marina DSM 4741, Phaeobacter inhibens DSM 17,395, Pseusooceanicola batsensis DSM 15,984, and Micrococcus luteus DSM 20030 (ATCC 4698) ([Michael et al., 2016]). These strains, sourced from DSMZ (Leibniz Institute DSMZ—German Collection of Microorganisms and Cell Cultures), were cultured in liquid marine broth (Carl Roth GmbH, Karlsruhe, Germany) with agitation at 180 rpm or on agar-supplemented marine broth. Incubation temperatures were set at 28°C for M. hydrocarbonoclasticus and Cobetia marina, 30°C for P. inhibens and P. batsensis, while M. luteus was maintained at 37°C in Brain Heart Infusion broth (BHI, Becton Dickinson, GmbH, Heidelberg, Germany) under similar agitation conditions.
The antibiofilm potential of compounds (1) and (2) against the five marine bacterial species was investigated in 96-well polystyrene flat-bottom microplates (Nunclon Delta Surface, Thermo Scientific, Roskilde, Denmark), as described previously ([Bauermeister et al., 2019]; [Pereira et al., 2020]). In the initial screening, bacterial overnight cultures were diluted to an OD600 of 0.2 and incubated statically at appropriate temperatures. The cultures were tested at 31.25, 15.60, 7.81, 3.91, 1.95, 0.98 μg/mL concentrations (2-fold serial dilutions) of compounds (1) and (2), solubilized in DMSO, or left untreated. After 24 h (M. hydrocarbonoclasticus, C. marina) or 48 h (P. batsensis, P. inhibens, M. luteus) incubation, OD600 was measured. The planktonic cells and media were discarded, and the wells were washed twice with deionized water. Biofilms were fixed, stained, and quantified by measuring the OD600 after solubilization with acetic acid. Biofilm inhibition percentages were calculated relative to untreated bacterial species, using DMSO as a negative control and CuSO4 (0.16 μg/mL), as a positive control. All assays were performed in triplicate, and the results represent the mean and standard error of the mean (SEM). Statistical analysis was conducted using GraphPad Prism 8.0.2, employing one-way ANOVA followed by Dunnett’s multiple comparisons test against the negative control.

[2] = Mussel larvae acute toxicity (mortality); conditions: Mytilus galloprovincialis, in vivo, other: waterborne exposure in 24-well plates; 15 h acute exposure
Method: The in vivo antimacrofouling activity of compounds (1) and (2) was evaluated against mussel M. galloprovincialis adhesive larvae (plantigrades) in an acute bioassay. Juvenile mussel aggregates were harvested from the intertidal rocky shore during low spring tides at Memória beach, Matosinhos, Portugal. In the laboratory, precisely before the bioassays, mussel plantigrade larvae were meticulously screened and isolated from the juvenile aggregates using a binocular microscope (Olympus SZX2-ILLT, Hamburg, Germany). The isolated larvae were then washed with filtered seawater to eliminate organic debris, and competent plantigrade larvae, characterized by foot exploratory behavior, were selected for the exposure bioassays, following established protocols ([Almeida et al., 2017]; [Almeida et al., 2020]; [Antunes et al., 2019]; [Mabrouk et al., 2020]). Plantigrades were exposed in 24-well polystyrene plates for 15 h in darkness at 18°C. DMSO served as the solvent for the testing compounds in stock and working solutions. The DMSO concentration in the tested solutions was consistently maintained at 0.1%. […] The anti-settlement bioactivity was assessed based on the presence or absence of fixed byssal threads produced by each individual larva for all tested conditions. […] EC50 values for each compound were calculated using Probit regression analysis. […]

[3] = tested on: Pseudokirchneriella subcapitata; assay: Algal growth inhibition test (OECD 201); assay type: cell-based
Method: (§1) The in vivo evaluation of compounds (1) and (2) for acute toxicity was performed towards marine bacterium Aliivibrio fischeri, and planktonic crustacean Daphnia magna. The chronic ecotoxicity tests were evaluated using algae Pseudokirchneriella subcapitata and Phaeodactylum tricornutum.
(§2) Freshwater and marine algal growth inhibition was assessed using P. subcapitata and P. tricornutum according to OECD Guideline 201 procedures (“Alga, Growth Inhibition Test”), ISO-8692 (“Water quality–Fresh water algal growth inhibition test with unicellular green algae”) and ISO-10253. Briefly, the algae cells were de-immobilized from algal beads using Matrix dissolving medium (Microbiotests), according to the manufacturer’s instructions, and grown in flasks containing algal culturing medium which was prepared following the OECD Guideline 201 and ISO-8692. Flasks with algae were kept for 7 days under light with orbital agitation. When the algae culture had sufficient cells, as verified by the optical density at 670 nm, these were tested at an initial cell density of 1 × 10^6 cells/mL in algal culturing medium. Madeirone (1) and neomarinone (2) were dissolved in DMSO and tested at the concentrations of 100, 50, 25, 12.5, 6.25, 3.13, and 1.56 μg/mL. The algae were cultured in microplates in triplicate and were kept for 4 days under light with orbital agitation. […] Each experiment was performed in triplicate and the results of two independent experiments with <10% SD are presented. Growth inhibition calculations were performed using cell numbers (biomass), as determined by a calibration line. Potassium dichromate (K2Cr2O7) was used as a positive control.

[4] = tested on: Phaeodactylum tricornutum; assay: Algal growth inhibition test (OECD 201, ISO-10253); assay type: cell-based
Method: as §1, §2

Compound | inhibition at 0.98 µg/mL [1] [%] | inhibition at 1.95 µg/mL [1] [%] | inhibition at 3.91 µg/mL [1] [%] | inhibition at 7.81 µg/mL [1] [%] | inhibition at 15.6 µg/mL [1] [%] | inhibition at 31.25 µg/mL [1] [%] | LC50 at 15 h [2] [µg/mL] | Inhibition (%) P. subcapitata (growth) ([3]; 25 µg/mL) [%] | Inhibition (%) P. subcapitata (growth) ([3]; 50 µg/mL) [%] | Inhibition (%) P. subcapitata (growth) ([3]; 100 µg/mL) [%] | Inhibition (%) P. tricornutum (growth) ([4]; 25 µg/mL) [%] | Inhibition (%) P. tricornutum (growth) ([4]; 50 µg/mL) [%] | Inhibition (%) P. tricornutum (growth) ([4]; 100 µg/mL) [%] | Biofilm inhibition, up to (highest over tested concentrations) P. batsensis ([1]; 0.98-31.25 µg/mL tested) | Inhibition (%) P. tricornutum (growth) ([4]; 12.5 µg/mL) [%]
CC1=CCC[C@@H](C)[C@]1(C)CC[C@@]1(C)c2c(O)cc3c(c2O[C@@H]1C)C(=O)C=C(CO)C3=O (relative stereo) [compound 1, madeirone] | 10.8 ± 1.7 | 17.9 ± 2.4 | 24.9 ± 2.9 | 34.8 ± 2.7 | 49.1 ± 0.7 | 59.2 ± 0.4 | > 10 | 9.1 | 27.3 | 52.8 | 45.7 | 58.0 | 86.9 |  | 
CC1=CCC[C@@H](C)[C@]1(C)CC[C@@]1(C)c2c(O)cc3c(c2O[C@@H]1C)C(=O)C(C)=C(O)C3=O [compound 2, neomarinone] | 11.7 ± 6.2 | 13.9 ± 5.7 | 19.4 ± 4 | 26.3 ± 5.9 | 34.9 ± 4.8 | 40.7 ± 4.7 | > 4 |  | 9.7 | 26.2 | 38.5 | 40.8 | 77.7 | up to 40% | 26.5
